ChEMBL document CHEMBL1124116 (J Med Chem, 1988)
pIC50: −log10 of the molar value.

These molecules were tested against T1, Cholesterol side-chain cleavage enzyme, mitochondrial (Bos taurus, UniProt P00189). Details: read-out: I50.
T1 sequence (P00189 whole entry): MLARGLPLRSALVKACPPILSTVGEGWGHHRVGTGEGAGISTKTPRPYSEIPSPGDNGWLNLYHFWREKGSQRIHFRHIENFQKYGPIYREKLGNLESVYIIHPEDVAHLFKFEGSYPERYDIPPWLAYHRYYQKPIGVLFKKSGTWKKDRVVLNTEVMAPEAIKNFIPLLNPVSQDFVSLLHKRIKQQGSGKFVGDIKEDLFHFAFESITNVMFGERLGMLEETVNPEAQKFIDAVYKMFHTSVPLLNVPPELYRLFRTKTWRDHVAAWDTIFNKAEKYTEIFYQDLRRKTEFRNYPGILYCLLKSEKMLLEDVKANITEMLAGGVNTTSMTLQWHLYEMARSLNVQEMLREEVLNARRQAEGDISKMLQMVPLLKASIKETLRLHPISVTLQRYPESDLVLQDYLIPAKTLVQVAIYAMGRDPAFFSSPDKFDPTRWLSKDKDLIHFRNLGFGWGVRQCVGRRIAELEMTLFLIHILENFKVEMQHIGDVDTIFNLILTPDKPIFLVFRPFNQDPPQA
For `C#CCN1C(=O)C2CC2(c2ccc(N)cc2)C1=O` (stereo not drawn), the pIC50 was 3.53. `CCN1C(=O)C2CC2(c2ccc(N)cc2)C1=O` (stereo not drawn) was tested, and the pIC50 was 3.52. `CN1C(=O)C2CC2(c2ccc(N)cc2)C1=O` (stereo not drawn) gave a pIC50 of 3.34. `Nc1ccc(C23CC2C(=O)N(Cc2ccccc2)C3=O)cc1` (stereo not drawn) gave a pIC50 of 3.54. `C=CCN1C(=O)C2CC2(c2ccc(N)cc2)C1=O` (stereo not drawn) was tested, and the pIC50 was 3.56. Molecule `CC(C)N1C(=O)C2CC2(c2ccc(N)cc2)C1=O` (stereo not drawn) has a pIC50 of 3.49. With `CC(C)CN1C(=O)C2CC2(c2ccc(N)cc2)C1=O` (stereo not drawn) the pIC50 was 3.51. Molecule `CC(C)(C)CN1C(=O)C2CC2(c2ccc(N)cc2)C1=O` (stereo not drawn) has a pIC50 of 3.53.
